The source of these data is ChEMBL document CHEMBL1938367, “Novel potent 2,5-pyrrolidinedione peptidomimetics as aminopeptidase N inhibitors. Design, synthesis and activity evaluation” (Bioorg Med Chem Lett, 2012).

The structures appear in SMILES notation.

In one assay the target is T1, Aminopeptidase N (Sus scrofa, UniProt P15145).
T1 sequence (P15145 whole entry): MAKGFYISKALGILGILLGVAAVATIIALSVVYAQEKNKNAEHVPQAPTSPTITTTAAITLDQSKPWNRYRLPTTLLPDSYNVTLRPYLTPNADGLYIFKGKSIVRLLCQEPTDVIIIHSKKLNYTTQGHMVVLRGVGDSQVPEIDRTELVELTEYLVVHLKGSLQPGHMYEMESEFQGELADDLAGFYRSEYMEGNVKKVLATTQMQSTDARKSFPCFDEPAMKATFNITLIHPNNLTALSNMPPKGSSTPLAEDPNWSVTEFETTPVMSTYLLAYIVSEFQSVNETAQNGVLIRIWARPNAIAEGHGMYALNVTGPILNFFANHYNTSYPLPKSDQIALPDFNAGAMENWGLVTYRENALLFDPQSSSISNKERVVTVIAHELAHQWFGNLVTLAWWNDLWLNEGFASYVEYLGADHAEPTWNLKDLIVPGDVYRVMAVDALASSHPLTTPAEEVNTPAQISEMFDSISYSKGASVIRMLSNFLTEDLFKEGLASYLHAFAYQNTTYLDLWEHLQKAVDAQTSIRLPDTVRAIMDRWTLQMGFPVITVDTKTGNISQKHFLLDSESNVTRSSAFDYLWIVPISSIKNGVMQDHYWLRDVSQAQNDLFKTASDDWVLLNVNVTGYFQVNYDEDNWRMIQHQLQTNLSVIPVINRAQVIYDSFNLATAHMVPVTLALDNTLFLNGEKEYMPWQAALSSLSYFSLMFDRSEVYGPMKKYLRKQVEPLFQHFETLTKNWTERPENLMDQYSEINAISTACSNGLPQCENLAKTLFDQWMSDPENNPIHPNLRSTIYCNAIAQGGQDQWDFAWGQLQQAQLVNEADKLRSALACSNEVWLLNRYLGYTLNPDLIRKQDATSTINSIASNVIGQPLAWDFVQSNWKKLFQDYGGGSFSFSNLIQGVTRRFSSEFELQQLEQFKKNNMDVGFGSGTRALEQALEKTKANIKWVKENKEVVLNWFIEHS
Kind of assay: Inhibition of porcine kidney microsomal aminopeptidase N using L-Leu-p-nitroanilide as substrate pre-incubated for 30 mins prior substrate addition by UV-VIS spectrophotometry.

The target of assay [1] is T2, Aminopeptidase N (Sus scrofa) (UniProt P15145).
T2 sequence (whole entry): T1 sequence (P15145 whole entry)
Kind of assay: Ratio of bestatin IC50 to compound IC50 for porcine kidney microsomal aminopeptidase N.

The next assay deals with H22. Put plainly: Antimetastatic activity against […] H22 cells xenografted in mouse assessed as inhibition of metastasized nodes on lung surface dosed orally 6 days/week for 2 weeks. It counts as functional. In general terms: Xenograft models place foreign cells or tissue in a host animal.
In a further assay the test system is HL-60. Kind of assay: Antiproliferative activity against human HL60 cells after 48 hrs by MTT assay. Type of assay: functional, cell-based. As to conditions: HL-60, 48 h. On the technique in general: Tetrazolium assays rely on reduction of a dye to a coloured formazan, in cell work by metabolically active cells.

For `NCC(=O)N[C@H]1CC(=O)N(CC(=O)NO)C1=O`, it took 1000 nM to reach half-maximal inhibition at Aminopeptidase N (IC50).

Turning to `Cl.N[C@@H](Cc1ccccc1)C(=O)N[C@H]1CC(=O)N(CC(=O)NO)C1=O`, in assay [1], the Ratio IC50 was determined as 2.4. For the same compound, the “inhibition (INH)” value with H22 is recorded as 54.21%. Besides, the IC50 at Aminopeptidase N worked out at 1000 nM; in the assay with HL-60, 149000 nM.

Turning to `CC(C)C[C@H](NC(=O)[C@@H](O)[C@H](N)Cc1ccccc1)C(=O)O` [UBENIMEX], in the assay with H22, the “inhibition (INH)” value came out at 45.37%.

On Aminopeptidase N, `NCCCC[C@H](N)C(=O)N[C@H]1CC(=O)N(CC(=O)NO)C1=O` returned an IC50 of 1000 nM. This counts as single-digit micromolar.

`CC[C@@H](C)[C@H](N)C(=O)N[C@H]1CC(=O)N(CC(=O)NO)C1=O` yielded a concentration for half-maximal inhibition (IC50) at Aminopeptidase N of 1000 nM.

`CC(C)C[C@H](N)C(=O)N[C@H]1CC(=O)N(CC(=O)NO)C1=O`: on Aminopeptidase N, inhibition was half-maximal at 1000 nM (IC50).

As for `C[C@H](N)C(=O)N[C@H]1CC(=O)N(CC(=O)NO)C1=O`, 1000 nM corresponded to half-maximal inhibition against Aminopeptidase N (IC50). This lies in the single-digit micromolar range.

`N[C@@H](Cc1ccc(O)cc1)C(=O)N[C@H]1CC(=O)N(CC(=O)NO)C1=O`: the IC50 on Aminopeptidase N stood at 1000 nM.

For the compound `CC(C)C[C@H](NC(=O)[C@@H](O)[C@H](N)Cc1ccccc1)C(=O)N1CCC[C@H]1C(=O)N1CCC[C@H]1C(=O)O`, the Ratio IC50 in assay [1] stood at 50.

`CC(C)[C@H](N)C(=O)N[C@H]1CC(=O)N(CC(=O)NO)C1=O` yielded an IC50 against Aminopeptidase N of 1000 nM.

On to `O=C(CN1C(=O)C[C@H](NC(=O)[C@@H]2CCCN2)C1=O)NO`, for which half-maximal inhibition on Aminopeptidase N (IC50) was put at 1000 nM. This counts as single-digit micromolar.

As usually defined, the IC50 is the concentration that inhibits the measured activity by half. The low end stands for inhibition by little substance, the high end for a need for much substance.
